Results reported in patent US6787650B1, “Urea compounds, process for producing the same and use thereof” (Takeda Chemical Industries, Ltd., priority 1999, dated 2004).
Where a name gives a salt, the structure may show the parent alone.

How the values were obtained:
[1] = molecular target: T1, human CCR5 (Homo sapiens, UniProt P51681); experiment: Inhibition of [125I]-RANTES binding to CHO/CCR5 cells (CCR5 antagonistic activity); details: 1.0 μM test compound, 100 pM [125I]-RANTES, room temperature, 40 minutes; for inhibition at 1 µM: read-out: Inhibition Rate (%) at 1.0 μM
T1 construct: expressed in transfected cells
Experimental: Cloning of CCR5 gene was carried out by PCR (polymerase chain reaction) from human spleen cDNA. With using 0.5 ng of spleen cDNA (Toyobo, QUICK-Clone cDNA) as a template, PCR was performed in DNA Thermal Cycler 480 (Perkin-Elmer) (reaction conditions: 30 cycles of 95° C. for 1 minute, 60° C. for 1 minute, and 75° C. for 5 minutes) by adding primer set, 5′-[…]-3′ (25 pmol) and 5′-[…]-3′ (25 pmol), which were designed referring to nucleotide sequence of CCR5 gene reported by Samson et al. (Biochemistry, 35 (11), 3362-3367 (1996)) and by using TaKaRa EX Taq (Takara Shuzo). The resultant PCR product was subjected to agarose gel electrophoresis to collect about 1.0 kb DNA fragment, which was subjected to Original TA Cloning Kit (Funakoshi) to carry out cloning of CCR5 gene.
The plasmid obtained in the above (1) was digested with restriction enzymes XbaI (Takara Shuzo) and BamHI (Takara Shuzo) and subjected to agarose gel electrophoresis to collect about 1.0 kb DNA fragment. The DNA fragment was mixed with plasmid pcDNA3.1 (Funakoshi) for expression in animal cells, said plasmid being digested with XbaI and BamHI, and they were ligated with DNA Ligation Kit Ver.2 (Takara Shuzo). The resulting plasmid was subjected to transformation of competent cell of E. coli JM109 (Takara Shuzo) to give plasmid pCKR5.
CHO-K1 cells were grown in 750 ml of tissue culture flask (Becton Dickinson) using Ham's F12 medium (Nihon Pharmaceutical) containing 10% fetal calf serum (Life Tech Oriental) and took off with 0.5 g/L trypsin-0.2 g/L EDTA (Life Tech Oriental). The cells were washed with PBS (Life Tech Oriental), centrifuged (1000 rpm, 5 minutes), and suspended in PBS. With using Gene Pulser (Bio-Rad Laboratories), DNA was introduced into the cells under the conditions shown below. That is, to the cuvette having 0.4 cm gap were added 8×10^6 cells and 10 μg of plasmid pCKR5 for expression of human CCR5, and electroporation was carried out under 0.25 kV of voltage and 960 μF of capacitance. The cells were transferred into Ham's F12 medium containing 10% fetal calf serum, and cultivated for 24 hours. The cells were again took off and centrifuged, and suspended in Ham's F12 medium containing 10% fetal calf serum and 500 μg/ml of geneticin (Life Tech Oriental). The suspension was diluted to give 10^4 cells/ml of the suspension, which was inoculated on 96 well plate (Becton Dickinson) to give geneticin resistant cells.
Then, the resulting geneticin resistant cells were cultivated in 96 well plate (Becton Dickinson), and cells expressing CCR5 were selected from the geneticin resistant cells. That is, in an assay buffer (Ham's F12 medium containing 0.5% BSA and 20 mM HEPES (Wako Pure Chemical, pH 7.2) to which was added 200 pM of [^125I]-RANTES (Amersham) as a ligand, binding reaction was carried out at room temperature for 40 minutes, and the buffer was washed with ice-cooled PBS. To the buffer was added 50 μl/well of 1M NaOH, and the mixture was stirred. Radioactivity was determined with γ-counter to select CHO/CCR5 cells which specifically bound with the ligand.
(4) Evaluation of Test Compounds Based on CCR5 Antagonistic Activity
The CHO/CCR5 were inoculated on 96 well microplate (5×10^4 cells/well) and cultivated for 24 hours. The medium was removed by means of suction, and to each well was added assay buffer containing Test Compound (1 μl) and then 100 pM of [^125I]-RANTES (Amersham) as a ligand. The reaction was carried out at room temperature for 40 minutes, and assay buffer was removed by means of suction. Each well was washed twice with cooled PBS, and 200 μl of Microscinti-20 (Packard Instrument, Inc.) was added to each well. Radioactivity was determined with Top-Count Micro Scintillation Counter (Packard Instrument, Inc.).
According to the method described above, the inhibition rate of the test compounds for CCR5 binding was determined.

[2] = system: HIV-1 Ba-L; experiment: Inhibitory effect on HIV-1 infection to MAGI-CCR5 cell; format: cell-based; details: Human immunodeficiency virus 1, BAL, 48 h; final concentration 0.16 μM; MAGI-CCR5 cells; 300PFU HIV-1 Ba-L; 37° C., 2 days; blue cells counted
Experimental: (5) Inhibitory Effect on HIV-1 Infection to MAGI-CCR5 Cell
The plasmid where β-galactosidase gene was ligated to the downstream of HIV-1 LTR was introduced into CD4 positive HeLa cell, to which human CCR^5 was further introduced to obtain transformant MAGI-CCR5. By using said transformant MAGI-CCR5, the degree of HIV-1 infection was calculated from β-galactosidase activity (blue color due to decomposition of 5-bromo-4-chloro-3-indolyl-β-D-galactopyranoside). Specifically, MAGI-CCR5 cells were suspended in DMEM medium containing 10% serum to prepare 5×10^4 cells/ml suspension. To each well of 96 well plate was inoculated 200 μl of the suspension, and the cells were cultivated at 37° C. overnight. The medium was removed by means of suction, and to the residue was added 100 μl of the above medium containing 0.32 μM of Test Compound and 100 μl of the above medium containing 300PFU of HIV-1 Ba-L cells. The final concentration of the test compound was 0.16 μM. The cells were cultivated at 37° C. for 2 days. The medium was removed by means of suction. To the residue was added 200 μl of cell fixative (PBS containing 1% formaldehyde and 0.2% glutaraldehyde), and the mixture was allowed to stand at room temperature for 5 minutes and washed twice with PBS. […] The number of blue cells was counted by microscope and defined as the number of cells infected with HIV-1.

T1 sequence (P51681 whole entry): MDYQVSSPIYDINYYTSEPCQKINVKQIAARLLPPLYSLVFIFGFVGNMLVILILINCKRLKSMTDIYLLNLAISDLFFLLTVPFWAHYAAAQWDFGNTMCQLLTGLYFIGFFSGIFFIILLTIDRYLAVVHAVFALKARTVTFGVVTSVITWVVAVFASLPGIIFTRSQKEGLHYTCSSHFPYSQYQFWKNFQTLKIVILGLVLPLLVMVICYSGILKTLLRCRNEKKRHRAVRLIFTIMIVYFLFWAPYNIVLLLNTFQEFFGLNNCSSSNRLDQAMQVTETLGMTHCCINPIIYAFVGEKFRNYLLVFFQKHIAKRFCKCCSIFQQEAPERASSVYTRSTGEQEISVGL

inhibition at 1 µM [1] | melting point | SMILES | other results
67% | 124 to 127 °C | O=C(Nc1cccc2ccccc12)N(CCCN1CCC(Cc2ccccc2)CC1)c1ccccc1 [Example 13, N-[3-(4-Benzyl-1-piperidinyl)propyl]-N′-(1-naphthyl)-N-phenylurea] | 
96% |  | O=C(Nc1ccccc1)N(CCCN1CCC(Cc2ccccc2)CC1)c1ccccc1 [Example 1, N-[3-(4-Benzyl-1-piperidinyl)propyl]-N-phenyl-N′-phenylurea hydrochloride] | 
 | 106 to 108 °C | O=C(NC1CCCCC1)N(CCCN1CCC(Cc2ccccc2)CC1)c1ccccc1 [Example 6, N-[3-(4-Benzyl-1-piperidinyl)propyl]-N′-cyclohexyl-N-phenylurea] | 
92% |  | CCCNC(=O)N(CCCN1CCC(Cc2ccccc2)CC1)c1ccccc1 [Example 7, N-[3-(4-Benzyl-1-piperidinyl)propyl]-N-phenyl-N′-propylurea] | 
92% |  | O=C(Nc1ccc(Cl)cc1)N(CCCN1CCC(Cc2ccc(F)cc2)CC1)c1ccc(Cl)c(Cl)c1 [Example 12, N′-(4-Chlorophenyl)-N-(3,4-dichlorophenyl)-N-{3-[4-(4-fluorobenzyl)-1-piperidinyl]propyl}urea] | 
98% |  | O=C(Nc1ccc(Cl)cc1)N(CCCN1CCC(Cc2ccc(S(=O)(=O)N3CCOCC3)cc2)CC1)c1ccccc1 [Example 71, N′-(4-Chlorophenyl)-N-(3-{4-[4-(4-morpholinylsulfonyl)benzyl]-1-piperidinyl}propyl)-N-phenylurea hydrochloride] | 
 |  | CS(=O)(=O)c1ccc(CC2CCN(CCCN(C(=O)Nc3ccc(Cl)cc3)c3ccccc3)CC2)cc1.Cl [Example 72, N′-(4-Chlorophenyl)-N-(3-{4-[4-(4-methylsulfonyl)benzyl]-1-piperidinyl}propyl)-N-phenylurea hydrochloride] | Inhibition Rate (%) at 1.0 μM [1]: 94%
 |  | O=C(Nc1ccc(Cl)cc1)N(CCCN1CCC(Cc2ccccc2)CC1)c1ccccc1 [Example 76, N-[3-(4-Benzyl-1-piperidinyl)propyl]-N′-(4-chlorophenyl)-N-phenylurea hydrochloride] | inhibition at 0.16 µM [2]: 98%
100% |  | Cc1ccc(N(CCCN2CCC(Cc3ccccc3)CC2)C(=O)Nc2ccc(Cl)cc2)cc1 [Example 10, N-[3-(4-Benzyl-1-piperidinyl)propyl]-N′-(4-chlorophenyl)-N-(4-methylphenyl)urea hydrochloride] | 

SMILES | inhibition at 1 µM [1] | melting point | other results
O=C(Nc1ccc(Cl)cc1)N(CCCN1CCC(Cc2ccccc2)CC1)c1ccccc1 [Example 2, N-[3-(4-Benzyl-1-piperidinyl)propyl]-N′-(4-chlorophenyl)-N-phenylurea] |  | 101 to 103 °C | 
